Measurements as given in patent US11332459B2 (TEIJIN PHARMA LIMITED, priority 2017, dated 2022).
Counter-ions that a name gives are not always drawn.

Target: T1, human TRPC6 (Homo sapiens, UniProt Q9Y210)
T1 construct: expressed in transfected cells
T1 sequence (Q9Y210 1-931): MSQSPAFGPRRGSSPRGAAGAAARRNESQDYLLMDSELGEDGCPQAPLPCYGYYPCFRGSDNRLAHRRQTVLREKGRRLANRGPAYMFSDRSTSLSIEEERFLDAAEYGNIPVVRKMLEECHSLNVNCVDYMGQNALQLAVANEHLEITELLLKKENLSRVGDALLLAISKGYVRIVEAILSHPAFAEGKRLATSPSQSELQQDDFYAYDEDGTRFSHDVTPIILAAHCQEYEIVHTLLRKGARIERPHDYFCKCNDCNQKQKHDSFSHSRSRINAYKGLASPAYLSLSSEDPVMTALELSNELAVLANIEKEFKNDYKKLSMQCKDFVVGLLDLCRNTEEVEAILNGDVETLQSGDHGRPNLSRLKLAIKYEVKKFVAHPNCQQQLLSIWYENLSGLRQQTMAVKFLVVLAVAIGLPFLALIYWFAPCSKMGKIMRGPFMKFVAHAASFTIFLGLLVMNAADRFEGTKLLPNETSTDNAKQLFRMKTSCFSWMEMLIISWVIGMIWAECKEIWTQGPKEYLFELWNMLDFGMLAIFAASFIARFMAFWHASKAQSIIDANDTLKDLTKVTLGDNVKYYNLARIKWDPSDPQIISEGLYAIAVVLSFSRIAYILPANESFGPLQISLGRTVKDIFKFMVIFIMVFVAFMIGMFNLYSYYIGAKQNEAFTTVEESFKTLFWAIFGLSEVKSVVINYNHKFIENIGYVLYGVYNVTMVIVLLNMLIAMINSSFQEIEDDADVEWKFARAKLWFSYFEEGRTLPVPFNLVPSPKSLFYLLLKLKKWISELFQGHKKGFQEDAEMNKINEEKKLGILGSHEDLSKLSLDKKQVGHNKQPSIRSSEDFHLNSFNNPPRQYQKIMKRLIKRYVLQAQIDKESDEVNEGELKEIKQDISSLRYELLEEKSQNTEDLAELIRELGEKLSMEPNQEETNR
Assay: TRPC6 calcium flux assay (FLIPR, OAG-stimulated calcium influx)
Format: cell-based
Conditions: HEK293 cells stably transfected with human TRPC6, read-out: hTRPC6 Potency
Outline: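 HEK293 cells stably expressing human TRPC6, loaded with calcium dye 90–120 min at RT, then given compound for 25 min before OAG (50 uM final, 0.5% DMSO) in HEPES buffer pH 7.2 with 2 mM CaCl2. Background-subtracted FLIPR peak over 180 s normalized to OAG vs buffer; IC50 from dose plot.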

IC50 [nM] | SMILES
14 | COc1ccc2c(c1)nc(N1CC[C@@H](F)[C@H](N)C1)n2Cc1ccc(C#N)cn1 [Example 145, 6-((2-((3R,4R)-3-amino-4-fluoropiperidin-1-yl)-5-methoxy-1H-benzo[d]imidazol-1-yl)methyl)nicotinonitrile hydrochloride]
0.631 | COc1ccc2nc(N3CC[C@@H](F)[C@H](N)C3)n(Cc3ccc(C#N)cn3)c2c1 [Example 146, 6-((2-((3R,4R)-3-amino-4-fluoropiperidin-1-yl)-6-methoxy-1H-benzo[d]imidazol-1-yl)methyl)nicotinonitrile hydrochloride]
0.433 | COc1ccc2nc(N3CC[C@H](F)[C@H](N)C3)n(Cc3ccc(C#N)cn3)c2c1 [Example 147, 6-((2-((3R,4S)-3-amino-4-fluoropiperidin-1-yl)-6-methoxy-1H-benzo[d]imidazol-1-yl)methyl)nicotinonitrile hydrochloride]
11.8 | COc1ccc2c(c1)nc(N1CC[C@H](F)[C@H](N)C1)n2Cc1ccc(C#N)cn1 [Example 148, 6-((2-((3R,4S)-3-amino-4-fluoropiperidin-1-yl)-5-methoxy-1H-benzo[d]imidazol-1-yl)methyl)nicotinonitrile hydrochloride]
1.09 | N#Cc1cc(F)cc2c1nc(N1CC[C@H](F)[C@H](N)C1)n2Cc1ncc(Cl)cn1 [Example 149, 2-((3R,4S)-3-amino-4-fluoropiperidin-1-yl)-1-((5-chloropyrimidin-2-yl)methyl)-6-fluoro-1H-benzo[d]imidazole-4-carbonitrile]
9.02 | N#Cc1cc(F)cc2nc(N3CCC(F)(F)[C@H](N)C3)n(Cc3ncc(Cl)cn3)c12 [Example 150, (R)-2-(3-amino-4,4-difluoropiperidin-1-yl)-1-((5-chloropyrimidin-2-yl)methyl)-5-fluoro-1H-benzo[d]imidazole-7-carbonitrile]
6.06 | N#Cc1cc(F)cc2c1nc(N1CCC(F)(F)[C@H](N)C1)n2Cc1ncc(Cl)cn1 [Example 151, (R)-2-(3-amino-4,4-difluoropiperidin-1-yl)-1-((5-chloropyrimidin-2-yl)methyl)-6-fluoro-1H-benzo[d]imidazole-4-carbonitrile]
67.7 | N#Cc1ccc(Cn2c(N3CC[C@@H](O)[C@H](N)C3)nc3ccc(Cl)cc32)nc1 [Example 152, 6-((2-((3R,4R)-3-amino-4-hydroxypiperidin-1-yl)-6-chloro-1H-benzo[d]imidazol-1-yl)methyl)nicotinonitrile]
72 | N#Cc1ccc(Cn2c(N3CC[C@H](O)[C@H](N)C3)nc3ccc(Cl)cc32)nc1 [Example 153, 6-((2-((3R,4S)-3-amino-4-hydroxypiperidin-1-yl)-6-chloro-1H-benzo[d]imidazol-1-yl)methyl)nicotinonitrile]
3.06 | N#Cc1ccc(Cn2c(N3CCC(F)(F)[C@H](N)C3)nc3ccccc32)cc1 [Example 154, (R)-4-((2-(3-amino-4,4-difluoropiperidin-1-yl)-1H-benzo[d]imidazol-1-yl)methyl)benzonitrile]
61.7 | N#Cc1ccc(Cn2c(N3CC[C@@H](F)[C@H](N)C3)nc3cc(F)cc(F)c32)cc1 [Example 156]
0.501 | N#Cc1ccc(Cn2c(N3CC[C@@H](F)[C@H](N)C3)nc3c(F)cc(F)cc32)cc1 [Example 157, 4-((2-((3R,4R)-3-amino-4-fluoro-1-piperidinyl)-4,6-difluoro-1H-benzimidazol-1-yl)methyl)benzonitrile]
4.71 | N#Cc1ccc(Cn2c(N3CC[C@@H](F)[C@H](N)C3)nc3ccc(C#N)cc32)cc1 [Example 158, 2-((3R,4R)-3-amino-4-fluoro-1-piperidinyl)-1-(4-cyanobenzyl)-1H-benzimidazole-6-carbonitrile]
16.4 | N#Cc1ccc(Cn2c(N3CC[C@@H](F)[C@H](N)C3)nc3cc(C#N)ccc32)cc1 [Example 159, 2-((3R,4R)-3-amino-4-fluoro-1-piperidinyl)-1-(4-cyanobenzyl)-1H-benzimidazole-5-carbonitrile]
14.2 | N#Cc1ccc(Cn2c(N3CCC(F)(F)[C@H](N)C3)nc3ccc(C#N)cc32)cc1 [Example 160, 2-((3R)-3-amino-4,4-difluoro-1-piperidinyl)-1-(4-cyanobenzyl)-1H-benzimidazole-6-carbonitrile]
133 | N#Cc1ccc(Cn2c(N3CCC(F)(F)[C@H](N)C3)nc3cc(C#N)ccc32)cc1 [Example 161, 2-((3R)-3-amino-4,4-difluoro-1-piperidinyl)-1-(4-cyanobenzyl)-1H-benzimidazole-5-carbonitrile]

IC50 [nM] | SMILES
257 | N#Cc1ccc(Cn2c(N3CCC[C@@H](N)C3)nc3ccccc32)cc1 [Example 162, (R)-4-((2-(3-aminopiperidin-1-yl)-1H-benzo[d]imidazol-1-yl)methyl)benzonitrile]
2840 | C[C@@H]1CCN(c2nc3ccccc3n2Cc2ccc(C#N)cc2)C[C@@H]1N [Example 163, 4-((2-((3R,4R)-3-amino-4-methylpiperidin-1-yl)-1H-benzo[d]imidazol-1-yl)methyl)benzonitrile]
560 | N#Cc1ccc(Cn2c(N3CC[C@H](N)C3)nc3ccccc32)cc1 [Example 166, (S)-4-((2-(3-aminopyrrolidin-1-yl)-1H-benzo[d]imidazol-1-yl)methyl)benzonitrile]
1.97 | N#Cc1ccc(Cn2c(N3CCC[C@H](N)C3)nc3ccccc32)cc1 [Example 167, (S)-4-((2-(3-aminopiperidin-1-yl)-1H-benzo[d]imidazol-1-yl)methyl)benzonitrile]
1600 | N#Cc1ccc(Cn2c(N3CCC4(CCCC4N)C3)nc3ccccc32)cc1 (stereo not shown) [Example 168, 4-((2-(6-amino-2-azaspiro[4.4]nonan-2-yl)-1H-benzo[d]imidazol-1-yl)methyl)benzonitrile]
14.2 | N#Cc1ccc(Cn2c(N3CC4CCC(N)C4C3)nc3ccccc32)cc1 (stereo not shown) [Example 169, 4-((2-(4-aminohexahydrocyclopenta[c]pyrrol-2(1H)-yl)-1H-benzo[d]imidazol-1-yl)methyl)benzonitrile]
25.9 | N#Cc1ccc(Cn2c(N3CC[C@H](F)[C@@H](N)C3)nc3ccccc32)cc1 [Example 170, 4-((2-((3S,4S)-3-amino-4-fluoropiperidin-1-yl)-1H-benzo[d]imidazol-1-yl)methyl)benzonitrile]
544 | N#Cc1ccc(Cn2c(N3CC[C@@H](F)[C@@H](N)C3)nc3ccccc32)cc1 [Example 171, 4-((2-((3S,4R)-3-amino-4-fluoropiperidin-1-yl)-1H-benzo[d]imidazol-1-yl)methyl)benzonitrile]
2.22 | N#Cc1ccc(Cn2c(N3CC[C@H](F)[C@H](N)C3)nc3ccccc32)cc1 [Example 172, 4-((2-((3R,4S)-3-amino-4-fluoropiperidin-1-yl)-1H-benzo[d]imidazol-1-yl)methyl)benzonitrile]
1.38 | N#Cc1ccc(Cn2c(N3CC[C@@H](F)[C@H](N)C3)nc3ccccc32)cc1 [Example 173, 4-((2-((3R,4R)-3-amino-4-fluoropiperidin-1-yl)-1H-benzo[d]imidazol-1-yl)methyl)benzonitrile]
564 | N#Cc1ccc(Cn2c(N3CC[C@@](F)(CN)C3)nc3ccccc32)cc1 [Example 174, (R)-4-((2-(3-(aminomethyl)-3-fluoropyrrolidin-1-yl)-1H-benzo[d]imidazol-1-yl)methyl)benzonitrile 2,2,2-trifluoroacetate]
1700 | N#Cc1ccc(Cn2c(N3CC[C@](F)(CN)C3)nc3ccccc32)cc1 [Example 175, (S)-4-((2-(3-(aminomethyl)-3-fluoropyrrolidin-1-yl)-1H-benzo[d]imidazol-1-yl)methyl)benzonitrile 2,2,2-trifluoroacetate]
2330 | N#Cc1ccc(Cn2c(N3CC[C@@](O)(CN)C3)nc3ccccc32)cc1 [Example 176, (R)-4-((2-(3-(aminomethyl)-3-hydroxypyrrolidin-1-yl)-1H-benzo[d]imidazol-1-yl)methyl)benzonitrile 2,2,2-trifluoroacetate]
1540 | N#Cc1ccc(Cn2c(N3CC[C@](O)(CN)C3)nc3ccccc32)cc1 [Example 177, (S)-4-((2-(3-(aminomethyl)-3-hydroxypyrrolidin-1-yl)-1H-benzo[d]imidazol-1-yl)methyl)benzonitrile 2,2,2-trifluoroacetate]
47.1 | N#Cc1ccc(Cn2c(N3CC[C@@H](CN)C3)nc3ccccc32)cc1 [Example 178, (S)-4-((2-(3-(aminomethyl)pyrrolidin-1-yl)-1H-benzo[d]imidazol-1-yl)methyl)benzonitrile]
